{"source": "patent US20120070443A1", "about": "“PDE1 AS A TARGET THERAPEUTIC IN HEART DISEASE” (UNIVERSITY OF UTAH RESEARCH FOUNDATION, priority 2008, published 2012)", "key": {"doxorubicin toxicity": {"system": "doxorubicin toxicity", "conditions": "mouse model of doxorubicin toxicity; cited from earlier work"}, "[1]": {"system": "isoproterenol-induced cardiac hypertrophy", "conditions": "rats, cited from earlier work"}, "[2]": {"system": "hypertrophy following aortic constriction", "conditions": "mice; cited from earlier work"}, "[3]": {"system": "left anterior descending coronary artery ligation", "conditions": "mice, left anterior descending coronary arteries ligated; cited from earlier work"}, "[4]": {"system": "isolated mouse ventricular myocytes", "conditions": "cited from earlier work"}, "ischemic injury [5]": {"system": "ischemic injury", "conditions": "rabbit model; cited from earlier work"}, "ischemic injury [6]": {"system": "ischemic injury", "conditions": "mouse model; cited from earlier work"}, "PDE1 [7]": {"system": "PDE1", "assay": "cGMP-hydrolytic activity in mouse left ventricle preparations, Ca2+-dependent (Ca2+/calmodulin-stimulated) activity (PDE1)", "quoted_text": "(§1) Measurements were made in the presence and absence of calcium and calmodulin as described in Vandeput et al 2009. All measurements were made at a cGMP concentration of 0.1 μM. ‘Ca^2+-independent activity’ refers to activity measured in the absence of calcium and calmodulin; this includes PDE5 activity and unstimulated PDE1 activity. ‘Ca^2+-dependent activity’ refers to activity measured in the presence of calcium and calmodulin minus activity measured in their absence (i.e., minus Ca^2+-independent activity); this activity is comprised solely of Ca^2+/calmodulin-stimulated PDE1 activity.\n(§2) The effects of sildenafil on cGMP-hydrolytic activity in preparations from normal (pre-diseased) and diseased mouse left ventricle were then examined [Vandeput 2009]."}, "[8]": {"system": "cGMP-hydrolytic activity in preparations from human left ventricles (PDE1)", "assay": "cGMP-hydrolytic activity in preparations from human left ventricles", "assay_type": "biochemical", "conditions": "human left ventricle, 0.1 μM cGMP", "method": "Similar studies were carried out in preparation from human myocardium [Vandeput 2009]. […] From this it was inferred that PDE1 inhibition can have cardioprotective and other beneficial effects in human myocardium."}, "[9]": {"system": "cGMP-hydrolytic activity in preparations from mouse left ventricles", "assay": "cGMP-hydrolytic activity in preparations from mouse left ventricle (total activity)", "conditions": "0.1 μM cGMP", "quoted_text": "as §1, §2"}, "PDE1 [10]": {"system": "PDE1", "assay": "cAMP-hydrolytic activity in preparations from normal and infarcted mouse hearts", "conditions": "1 μM (1000 nM) sildenafil"}, "PDE5": {"system": "PDE5", "conditions": "1 μM (1000 nM) sildenafil; mouse left ventricle; 0.1 μM cGMP", "quoted_text": "as §1, §2"}}, "note": "“Also recorded” adds a separate entry of the source. Read-outs that look alike come from different tables or passages of the source.", "data": [{"smiles": "CCCc1nn(C)c2c(=O)[nH]c(-c3cc(S(=O)(=O)N4CCN(C)CC4)ccc3OCC)nc12", "note": "[sildenafil]", "values": [{"measurement": "apoptosis", "setting": "doxorubicin toxicity", "value": "anti-apoptotic effects"}, {"measurement": "development of contractile dysfunction", "setting": "doxorubicin toxicity", "value": "protect against the development of contractile dysfunction"}, {"measurement": "survival", "setting": "[1]; isoproterenol-induced cardiac hypertrophy", "value": "increase in survival"}, {"measurement": "development of isoproterenol-induced cardiac hypertrophy", "setting": "[1]", "value": "block the development"}, {"measurement": "development of hypertrophy following aortic constriction", "setting": "[2]", "value": "blocks and reverses"}, {"measurement": "apoptosis and survival", "setting": "[3]", "value": "anti-apoptotic and survival benefits"}, {"measurement": "apoptotic consequences of hypoxia", "setting": "[4]", "value": "protects against"}, {"measurement": "infarct size following ischemic injury", "setting": "ischemic injury [5]", "value": "reduces infarct size"}, {"measurement": "infarct size following ischemic injury", "setting": "ischemic injury [6]", "value": "reduces infarct size"}, {"measurement": "inhibition of PDE1 (cGMP hydrolysis)", "setting": "PDE1 [7]; 10 nM sildenafil, 0.1 μM cGMP", "value": "not PDE1"}, {"measurement": "inhibition of PDE1 (cGMP hydrolysis, Ca2+/calmodulin-stimulated activity)", "setting": "PDE1 [7]; 1 μM (1000 nM) sildenafil, 0.1 μM cGMP", "value": "inhibiting both PDE5 and PDE1; also recorded: inhibits PDE1 activity"}, {"measurement": "magnitude of inhibition attributable to PDE1 relative to that attributable to PDE5", "setting": "PDE1 [7]; 1 μM sildenafil, cGMP hydrolysis", "value": "much greater magnitude"}, {"measurement": "inhibition of cGMP-hydrolytic activity", "setting": "[8]; 10 nM sildenafil", "value": "no inhibition of cGMP-hydrolytic activity could be detected"}, {"measurement": "inhibition of cGMP-hydrolytic activity", "setting": "[8]; 1 μM (1000 nM) sildenafil", "value": "significant inhibition; also recorded: profound"}, {"measurement": "inhibition of cGMP-hydrolytic activity", "setting": "[9]; 10 nM sildenafil, normal (pre-diseased) and diseased mouse left ventricle", "value": "some inhibition"}, {"measurement": "inhibition of cGMP-hydrolytic activity", "setting": "[9]; 1 μM sildenafil, compared with 10 nM, normal and diseased mouse left ventricle", "value": "Inhibition was greater"}, {"measurement": "inhibition of cAMP-hydrolytic activity", "setting": "PDE1 [10]; normal and infarcted mouse hearts, absence of calcium and calmodulin", "value": "inhibits cAMP-hydrolytic activity; also recorded: significantly inhibits"}, {"measurement": "relative inhibition of cAMP-hydrolytic activity", "setting": "PDE1 [10]; presence of calcium and calmodulin, compared with their absence", "value": "of greater magnitude"}, {"measurement": "inhibition of PDE5 (cGMP hydrolysis)", "setting": "PDE5", "value": "inhibiting both PDE5 and PDE1"}]}]}
